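Exposure lasted 48 hours, with cells grown in 96-well plates and compounds tested at five concentrations. GI50 = concentration required for 50% inhibition of growth.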 Calls of active or inactive are those of the source. Cut-off read from the data, not from the text of the source: active = GI50 up to about 1.1 µM and inactive = higher.
Key:
Experiment in all cases: inhibition of tumour cell growth, NCI panel, 48 h
786-0 = system: 786-0
BT-549 = system: BT-549
CCRF-CEM = system: CCRF-CEM
COLO 205 = system: COLO 205
EKVX = system: EKVX
HCT-116 = system: HCT-116
Hs-578T = system: Hs-578T
IGROV-1 = system: IGROV-1
MCF7 = system: MCF7
MDA-MB-231 = system: MDA-MB-231
MDA-N = system: MDA-N
MOLT-4 = system: MOLT-4
NCI/ADR-RES = system: NCI/ADR-RES
OVCAR-8 = system: OVCAR-8
PC-3 = system: PC-3
RXF 393 = system: RXF 393
SK-MEL-2 = system: SK-MEL-2
SK-OV-3 = system: SK-OV-3
SNB-19 = system: SNB-19
T47D = system: T47D
U-251 = system: U-251
A549 = system: A549
ACHN = system: ACHN
CAKI-1 = system: CAKI-1
DU-145 = system: DU-145
HCC 2998 = system: HCC 2998
HCT-15 = system: HCT-15
HL-60 = system: HL-60
HOP-62 = system: HOP-62
HT-29 = system: HT-29
K562 = system: K562
KM12 = system: KM12
LOX IMVI = system: LOX IMVI
M14 = system: M14
MDA-MB-435 = system: MDA-MB-435
NCI-H226 = system: NCI-H226
NCI-H23 = system: NCI-H23
NCI-H460 = system: NCI-H460
NCI-H522 = system: NCI-H522
OVCAR-3 = system: OVCAR-3
OVCAR-4 = system: OVCAR-4
OVCAR-5 = system: OVCAR-5
RPMI-8226 = system: RPMI-8226
SF-268 = system: SF-268
SF-295 = system: SF-295
SF-539 = system: SF-539
SK-MEL-28 = system: SK-MEL-28
SK-MEL-5 = system: SK-MEL-5
SNB-75 = system: SNB-75
SW-620 = system: SW-620
TK-10 = system: TK-10
UACC-257 = system: UACC-257
UACC-62 = system: UACC-62
UO-31 = system: UO-31

## C[N+](C)(C)CCOP(=O)(O)OP(=O)([O-])OCC1CCC(n2ccc(N)nc2=O)O1 (centres undefined)
786-0
  GI50: > 100 µM (inactive)
BT-549
  GI50: > 100 µM (inactive)
CCRF-CEM
  GI50: > 100 µM (inactive)
COLO 205
  GI50: > 100 µM (inactive)
EKVX
  GI50: > 100 µM (inactive)
HCT-116
  GI50: > 100 µM (inactive)
Hs-578T
  GI50: > 100 µM (inactive)
IGROV-1
  GI50: > 100 µM (inactive)
MCF7
  GI50: > 100 µM (inactive)
MDA-MB-231
  GI50: > 100 µM (inactive)
MDA-N
  GI50: > 100 µM (inactive)
MOLT-4
  GI50: > 100 µM (inactive)
NCI/ADR-RES
  GI50: > 100 µM (inactive)
OVCAR-8
  GI50: > 100 µM (inactive)
PC-3
  GI50: > 100 µM (inactive)
RXF 393
  GI50: > 100 µM (inactive)
SK-MEL-2
  GI50: > 100 µM (inactive)
SK-OV-3
  GI50: > 100 µM (inactive)
SNB-19
  GI50: > 100 µM (inactive)
T47D
  GI50: > 100 µM (inactive)
U-251
  GI50: > 100 µM (inactive)

## COc1cc(OC)nc(Nc2c(C#N)c3nc4ccccc4n3c3ccccc23)n1
786-0
  GI50: 16.5 µM (inactive)
A549
  GI50: > 100 µM (inactive)
ACHN
  GI50: 18.7 µM (inactive)
BT-549
  GI50: 15.8 µM (inactive)
CAKI-1
  GI50: 29.1 µM (inactive)
CCRF-CEM
  GI50: > 100 µM (inactive)
COLO 205
  GI50: > 100 µM (inactive)
DU-145
  GI50: > 100 µM (inactive)
EKVX
  GI50: 72.3 µM (inactive)
HCC 2998
  GI50: > 100 µM (inactive)
HCT-116
  GI50: 29.6 µM (inactive)
HCT-15
  GI50: > 100 µM
HL-60
  GI50: > 100 µM (inactive)
HOP-62
  GI50: 16.6 µM (inactive)
HT-29
  GI50: > 100 µM (inactive)
Hs-578T
  GI50: 47.6 µM (inactive)
IGROV-1
  GI50: 21.8 µM (inactive)
K562
  GI50: > 100 µM (inactive)
KM12
  GI50: 45.9 µM (inactive)
LOX IMVI
  GI50: 21.4 µM (inactive)
M14
  GI50: > 100 µM (inactive)
MCF7
  GI50: 22.2 µM (inactive)
MDA-MB-435
  GI50: > 100 µM (inactive)
MDA-N
  GI50: > 100 µM (inactive)
MOLT-4
  GI50: > 100 µM (inactive)
NCI-H226
  GI50: 39.4 µM (inactive)
NCI-H23
  GI50: 32.1 µM (inactive)
NCI-H460
  GI50: 43 µM (inactive)
NCI-H522
  GI50: 19.2 µM (inactive)
NCI/ADR-RES
  GI50: 29.8 µM (inactive)
OVCAR-3
  GI50: 31.3 µM (inactive)
OVCAR-4
  GI50: 22.3 µM (inactive)
OVCAR-5
  GI50: > 100 µM (inactive)
OVCAR-8
  GI50: 34.9 µM (inactive)
PC-3
  GI50: 40.3 µM (inactive)
RPMI-8226
  GI50: > 100 µM (inactive)
RXF 393
  GI50: 39.8 µM (inactive)
SF-268
  GI50: 29.9 µM (inactive)
SF-295
  GI50: 21.6 µM (inactive)
SF-539
  GI50: 17.6 µM (inactive)
SK-MEL-28
  GI50: > 100 µM (inactive)
SK-MEL-2
  GI50: 25.8 µM (inactive)
SK-MEL-5
  GI50: > 100 µM (inactive)
SK-OV-3
  GI50: 51.6 µM (inactive)
SNB-19
  GI50: 25.1 µM (inactive)
SNB-75
  GI50: 16.4 µM (inactive)
SW-620
  GI50: > 100 µM (inactive)
T47D
  GI50: > 100 µM (inactive)
TK-10
  GI50: 26.5 µM (inactive)
U-251
  GI50: 31.3 µM (inactive)
UACC-257
  GI50: 52.7 µM (inactive)
UACC-62
  GI50: 37.1 µM (inactive)
UO-31
  GI50: 53.1 µM (inactive)
